From patent US20250312352A1, “GLP-1R MODULATING COMPOUNDS” (Gilead Sciences, Inc., priority 2021, published 2025)

Biological target: T1, GLP-1R (Homo sapiens, UniProt P43220)
T1 construct: host or cells: CHO cells
Experiment: GLP-1R activation cAMP assay (Assay 1 or Assay 2)
Assay type: cell-based
Conditions: cAMP increase in CHO cells stably expressing GLP-1R; compounds run on one of the two cAMP assays
Summary of the method: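 CHO cells stably expressing human GLP-1R were incubated 1 h in HBSS/20 mM HEPES/0.1% BSA, then exposed to 10-point agonist dilutions for 30 min at 37 °C. cAMP increase was measured with an HTRF Gs dynamic kit; EC50 from sigmoidal fit of response versus log concentration.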

T1 sequence (P43220 24-463): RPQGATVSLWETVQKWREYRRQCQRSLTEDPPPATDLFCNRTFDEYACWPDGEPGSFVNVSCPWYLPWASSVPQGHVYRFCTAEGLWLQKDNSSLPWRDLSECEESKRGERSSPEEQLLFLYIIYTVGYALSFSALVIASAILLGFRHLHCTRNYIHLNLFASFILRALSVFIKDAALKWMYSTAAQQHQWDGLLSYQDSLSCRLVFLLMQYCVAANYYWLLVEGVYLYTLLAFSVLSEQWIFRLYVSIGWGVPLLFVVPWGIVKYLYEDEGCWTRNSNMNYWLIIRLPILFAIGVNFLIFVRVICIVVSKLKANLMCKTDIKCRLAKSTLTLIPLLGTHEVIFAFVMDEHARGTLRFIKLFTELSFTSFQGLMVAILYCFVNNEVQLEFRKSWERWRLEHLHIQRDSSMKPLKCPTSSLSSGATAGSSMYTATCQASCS

Row | EC50 | Structure (SMILES)
1 | 0.07 nM | O=C(O)c1ccc2nc(Cc3cc(F)c(-c4cccc(OCc5nnc(-c6cnn(C(F)F)c6)s5)n4)cc3F)n(C[C@@H]3CCO3)c2c1 [Example 92, (S)-2-(4-(6-((5-(1-(difluoromethyl)-1H-pyrazol-4-yl)-1,3,4-thiadiazol-2-yl)methoxy)pyridin-2-yl)-2,5-difluorobenzyl)-1-(oxetan-2-ylmethyl)-1H-benzo[d]imidazole-6-carboxylic acid]
2 | 3.45 nM | COc1nnc(COc2nc(-c3cc(Cl)c(Cc4nc5c(F)cc(C(=O)O)cc5n4C[C@@H]4CCO4)cc3C)ccc2F)s1 [Example 443, (S)-2-(2-chloro-4-(5-fluoro-6-((5-methoxy-1,3,4-thiadiazol-2-yl)methoxy)pyridin-2-yl)-5-methylbenzyl)-4-fluoro-1-(oxetan-2-ylmethyl)-1H-benzo[d]imidazole-6-carboxylic acid]
3 | 0.07 nM | CC1(C#Cc2cnc(COc3cccc(-c4cc(F)c(Cc5nc6ccc(C(=O)O)cc6n5C[C@@H]5CCO5)cc4F)n3)s2)COC1 [Example 115, (S)-2-(2,5-difluoro-4-(6-((5-((3-methyloxetan-3-yl)ethynyl)thiazol-2-yl)methoxy)pyridin-2-yl)benzyl)-1-(oxetan-2-ylmethyl)-1H-benzo[d]imidazole-6-carboxylic acid]
4 | 0.099 nM | O=C(O)c1ccc2nc(Cc3cc(F)c(-c4cccc(OCc5ccc(C#Cc6cc[nH]c(=O)c6)cc5F)n4)cc3F)n(C[C@@H]3CCO3)c2c1 [Example 356, (S)-2-(2,5-difluoro-4-(6-((2-fluoro-4-((2-oxo-1,2-dihydropyridin-4-yl)ethynyl)benzyl)oxy)pyridin-2-yl)benzyl)-1-(oxetan-2-ylmethyl)-1H-benzo[d]imidazole-6-carboxylic acid]
5 | 0.25 nM | O=C(O)c1ccc2nc(Cc3cc(F)c(-c4cccc(OCc5cnc(C(=O)NC6COC6)cc5F)n4)cc3F)n(C[C@@H]3CCO3)c2c1 [Example 247, (S)-2-(2,5-difluoro-4-(6-((4-fluoro-6-(oxetan-3-ylcarbamoyl)pyridin-3-yl)methoxy)pyridin-2-yl)benzyl)-1-(oxetan-2-ylmethyl)-1H-benzo[d]imidazole-6-carboxylic acid]
6 | 4.23 nM | CCn1cc(Cl)c(COc2cccc(-c3cc(F)c(Cc4nc5ccc(C(=O)O)cc5n4C[C@@H]4CCO4)cc3F)n2)n1 [Example 76, (S)-2-(4-(6-((4-chloro-1-ethyl-1H-pyrazol-3-yl)methoxy)pyridin-2-yl)-2,5-difluorobenzyl)-1-(oxetan-2-ylmethyl)-1H-benzo[d]imidazole-6-carboxylic acid]
7 | 0.617 nM | Cn1nncc1C#Cc1ccc(COc2cccc(-c3cc(F)c(Cc4nc5ccc(C(=O)O)cc5n4C[C@@H]4CCO4)cc3F)n2)c(F)n1 [Example 278, (S)-2-(2,5-difluoro-4-(6-((2-fluoro-6-((1-methyl-1H-1,2,3-triazol-5-yl)ethynyl)pyridin-3-yl)methoxy)pyridin-2-yl)benzyl)-1-(oxetan-2-ylmethyl)-1H-benzo[d]imidazole-6-carboxylic acid]
8 | 0.05 nM | CNC(=O)c1cc(Cl)c(COc2cccc(-c3cc(F)c(Cc4nc5ccc(C(=O)O)cc5n4CC4(CF)CC4)c(F)c3F)n2)cn1 [Example 450, 2-(4-(6-((4-chloro-6-(methylcarbamoyl)pyridin-3-yl)methoxy)pyridin-2-yl)-2,3,6-trifluorobenzyl)-1-((1-(fluoromethyl)cyclopropyl)methyl)-1H-benzo[d]imidazole-6-carboxylic acid]
9 | 1.77 nM | Cc1cc(Cc2nc3ccc(C(=O)O)cc3n2[C@@H]2COCC2(C)C)c(Cl)cc1-c1ccc(F)c(OCc2ncc(C(F)(F)F)s2)n1 [Example 371, (S)-2-(2-chloro-4-(5-fluoro-6-((5-(trifluoromethyl)thiazol-2-yl)methoxy)pyridin-2-yl)-5-methylbenzyl)-1-(4,4-dimethyltetrahydrofuran-3-yl)-1H-benzo[d]imidazole-6-carboxylic acid]
10 | 0.17 nM | Cn1cc(C#Cc2ccc(COc3cccc(-c4cc(F)c(Cc5nc6ccc(C(=O)O)cc6n5C[C@@H]5CCO5)cc4F)n3)c(F)c2)cn1 [Example 132, (S)-2-(2,5-difluoro-4-(6-((2-fluoro-4-((1-methyl-1H-pyrazol-4-yl)ethynyl)benzyl)oxy)pyridin-2-yl)benzyl)-1-(oxetan-2-ylmethyl)-1H-benzo[d]imidazole-6-carboxylic acid]
11 | 0.6 nM | N#Cc1ccc(-c2cnc(COc3cccc(-c4cc(F)c(Cc5nc6ccc(C(=O)O)cc6n5C[C@@H]5CCO5)cc4F)n3)s2)cc1 [Example 383, (S)-2-(4-(6-((5-(4-cyanophenyl)thiazol-2-yl)methoxy)pyridin-2-yl)-2,5-difluorobenzyl)-1-(oxetan-2-ylmethyl)-1H-benzo[d]imidazole-6-carboxylic acid]
12 | 0.07 nM | COc1cc(C(=O)NC2(C#N)CC2)ncc1COc1cccc(-c2cc(F)c(Cc3nc4c(F)cc(C(=O)O)cc4n3C[C@@H]3CCO3)cc2F)n1 [Example 42, (S)-2-(4-(6-((6-((1-cyanocyclopropyl)carbamoyl)-4-methoxypyridin-3-yl)methoxy)pyridin-2-yl)-2,5-difluorobenzyl)-4-fluoro-1-(oxetan-2-ylmethyl)-1H-benzo[d]imidazole-6-carboxylic acid]
13 | 0.239 nM | O=C(O)c1cc(F)c2nc(Cc3cc(F)c(-c4ccc(F)c(OCc5ncc(C(F)F)s5)n4)cc3F)n(C[C@@H]3CCO3)c2c1 [Example 407, (S)-2-(4-(6-((5-(difluoromethyl)thiazol-2-yl)methoxy)-5-fluoropyridin-2-yl)-2,5-difluorobenzyl)-4-fluoro-1-(oxetan-2-ylmethyl)-1H-benzo[d]imidazole-6-carboxylic acid]
14 | 2.63 nM | CCc1nnc(COc2cccc(-c3cc(F)c(Cc4nc5ccc(C(=O)O)cc5n4C[C@@H]4CCO4)cc3F)n2)s1 [Example 299, (S)-2-(4-(6-((5-ethyl-1,3,4-thiadiazol-2-yl)methoxy)pyridin-2-yl)-2,5-difluorobenzyl)-1-(oxetan-2-ylmethyl)-1H-benzo[d]imidazole-6-carboxylic acid]
15 | 0.25 nM | Cc1ncc(C#Cc2ccc(COc3cccc(-c4cc(F)c(Cc5nc6ccc(C(=O)O)cc6n5C[C@@H]5CCO5)cc4F)n3)c(F)c2)o1 [Example 136, (S)-2-(2,5-difluoro-4-(6-((2-fluoro-4-((2-methyloxazol-5-yl)ethynyl)benzyl)oxy)pyridin-2-yl)benzyl)-1-(oxetan-2-ylmethyl)-1H-benzo[d]imidazole-6-carboxylic acid]
16 | 26 nM | COCCn1c(Cc2cc(F)c(-c3cccc(OCc4ccc(-c5ccc(N6CCCC6)nc5)cc4F)n3)cc2F)nc2ccc(C(=O)O)cc21 [Example 228, 2-(2,5-difluoro-4-(6-((2-fluoro-4-(6-(pyrrolidin-1-yl)pyridin-3-yl)benzyl)oxy)pyridin-2-yl)benzyl)-1-(2-methoxyethyl)-1H-benzo[d]imidazole-6-carboxylic acid]
17 | 2 nM | NC(=O)c1ncc(COc2cccc(-c3cc(F)c(Cc4nc5ccc(C(=O)O)cc5n4C[C@@H]4CCO4)cc3F)n2)s1 [Example 165, (S)-2-(4-(6-((2-carbamoylthiazol-5-yl)methoxy)pyridin-2-yl)-2,5-difluorobenzyl)-1-(oxetan-2-ylmethyl)-1H-benzo[d]imidazole-6-carboxylic acid]
18 | 0.1 nM | O=C(O)c1ccc2nc(Cc3cc(F)c(-c4cccc(OCc5cnc(C(=O)NC6CC6)cc5F)n4)cc3F)n(C[C@@H]3CCO3)c2c1 [Example 245, (S)-2-(4-(6-((6-(cyclopropylcarbamoyl)-4-fluoropyridin-3-yl)methoxy)pyridin-2-yl)-2,5-difluorobenzyl)-1-(oxetan-2-ylmethyl)-1H-benzo[d]imidazole-6-carboxylic acid]
19 | 5.65 nM | COCCn1c(Cc2cc(F)c(-c3cccc(OCc4ccc(C#CC5CNC5)cc4F)n3)cc2F)nc2ccc(C(=O)O)cc21 [Example 232, 2-(4-(6-((4-(azetidin-3-ylethynyl)-2-fluorobenzyl)oxy)pyridin-2-yl)-2,5-difluorobenzyl)-1-(2-methoxyethyl)-1H-benzo[d]imidazole-6-carboxylic acid]
20 | 0.336 nM | CC1(C)COC[C@H]1n1c(Cc2cc(F)c(-c3ccc(F)c(OCc4ncc(C(F)F)s4)n3)cc2F)nc2ccc(C(=O)O)cc21 [Example 416, (S)-2-(4-(6-((5-(difluoromethyl)thiazol-2-yl)methoxy)-5-fluoropyridin-2-yl)-2,5-difluorobenzyl)-1-(4,4-dimethyltetrahydrofuran-3-yl)-1H-benzo[d]imidazole-6-carboxylic acid]
21 | 0.08 nM | Cn1cc(-c2cnc(COc3cccc(-c4cc(F)c(Cc5nc6c(F)cc(C(=O)O)cc6n5C[C@@H]5CCO5)cc4F)n3)s2)cn1 [Example 87, (S)-2-(2,5-difluoro-4-(6-((5-(1-methyl-1H-pyrazol-4-yl)thiazol-2-yl)methoxy)pyridin-2-yl)benzyl)-4-fluoro-1-(oxetan-2-ylmethyl)-1H-benzo[d]imidazole-6-carboxylic acid]
22 | 1070 nM | COCCn1c(Cc2cc(F)c(-c3cccc(OCc4ccc(C#CC(C)(C)S(C)(=O)=O)nc4)n3)cc2F)nc2ccc(C(=O)O)cc21 [Example 221, 2-[[2,5-difluoro-4-[6-[[6-(3-methyl-3-methylsulfonyl-but-1-ynyl)-3-pyridyl]methoxy]-2-pyridyl]phenyl]methyl]-3-(2-methoxyethyl)benzimidazole-5-carboxylic acid]
23 | 0.08 nM | O=C(O)c1ccc2nc(Cc3cc(F)c(-c4cccc(OCc5ncc(-c6cnsc6)s5)n4)cc3F)n(C[C@@H]3CCO3)c2c1 [Example 95, (S)-2-(2,5-difluoro-4-(6-((5-(isothiazol-4-yl)thiazol-2-yl)methoxy)pyridin-2-yl)benzyl)-1-(oxetan-2-ylmethyl)-1H-benzo[d]imidazole-6-carboxylic acid]
